Results on four compounds are retold here after PubChem BioAssay (NCI).

Some test systems named below: SK-OV-3 ovarian; SK-MEL-2 melanoma; MOLT-4 leukemia; KM12 colon; BT-549 breast; SF-268 CNS; DU-145 prostate; HL-60(TB) leukemia; EKVX NSCLC; MDA-MB-231 breast.
Experiment in all cases: NCI anticancer screen, dose series, 48 h

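Test compounds were applied to cells in 96-well plates for 48 hours at 5 doses. Here, GI50 denotes the concentration required for 50% inhibition of growth. TGI marks complete inhibition of growth.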

As for `COc1ccc(/C=C/c2nc(NCCCN(C)C)c3ccccc3n2)cc1`, the GI50 was 2.51 µM with SK-OV-3 ovarian; 1.88 µM in the experiment with SK-MEL-2 melanoma; 1.61 µM with MOLT-4 leukemia; 1.73 µM in the experiment with KM12 colon; 1.55 µM in the experiment on BT-549 breast; 1.86 µM in the experiment on SF-268 CNS. The GI50 is 13.9 µM in the experiment on DU-145 prostate, 1.71 µM in the experiment with HL-60(TB) leukemia, 5.17 µM in the experiment with EKVX NSCLC and 1.99 µM in the experiment with MDA-MB-231 breast. Moreover, the TGI worked out at 6.3 µM in the experiment with SK-OV-3 ovarian; 3.52 µM with SK-MEL-2 melanoma; 3.55 µM in the experiment with MOLT-4 leukemia; 3.13 µM in the experiment on KM12 colon; 5.01 µM in the experiment with BT-549 breast; 4.17 µM with SF-268 CNS. In addition, the TGI in the experiment with DU-145 prostate worked out at 27 µM; with HL-60(TB) leukemia, 3.86 µM; in the experiment with EKVX NSCLC, 21.1 µM; in the experiment with MDA-MB-231 breast it was 5.24 µM.

As for `C=C1C(=O)O[C@H]2[C@H]1CC/C(COC(=O)NCc1ccc(Cn3c(=O)sn(CCCCl)c3=O)cc1)=C\CC[C@@]1(C)O[C@@H]21`, the GI50 is 18.3 µM in the experiment with SK-OV-3 ovarian; 4.83 µM in the experiment with SK-MEL-2 melanoma; 1.5 µM in the experiment with MOLT-4 leukemia; 4.92 µM with KM12 colon; 1.48 µM in the experiment on BT-549 breast; 2.63 µM in the experiment on SF-268 CNS. Further, the GI50 in the experiment with DU-145 prostate was 1.64 µM; in the experiment with HL-60(TB) leukemia, 0.967 µM; in the experiment with EKVX NSCLC it was 2.82 µM; in the experiment on MDA-MB-231 breast, 1.72 µM. For the same compound, the TGI in the experiment on SK-OV-3 ovarian was determined as 32.2 µM; with SK-MEL-2 melanoma, 17.4 µM; with MOLT-4 leukemia it was 5.41 µM; with KM12 colon, 17.5 µM; in the experiment on BT-549 breast, 2.91 µM; in the experiment with SF-268 CNS, 10.3 µM. Also, the TGI in the experiment with DU-145 prostate is 3.15 µM; in the experiment with HL-60(TB) leukemia it was 3.77 µM; in the experiment on EKVX NSCLC, 12.2 µM; in the experiment with MDA-MB-231 breast, 3.33 µM.

Consider `CCCCCCCCCCN(CCCCCCCCCC)CC(=O)c1ccc2cc(Br)c3ccccc3c2c1`, for which the GI50 in the experiment on SK-OV-3 ovarian was 4.94 µM; in the experiment on SK-MEL-2 melanoma, 1.84 µM; with MOLT-4 leukemia it was 2.66 µM; in the experiment with KM12 colon it was 1.88 µM; with BT-549 breast, 10.9 µM; with SF-268 CNS it was 3.07 µM. Further, the GI50 is 3.69 µM in the experiment on DU-145 prostate, 2.01 µM in the experiment with HL-60(TB) leukemia, 5.31 µM in the experiment on EKVX NSCLC and 1.67 µM with MDA-MB-231 breast. In addition, the TGI in the experiment with SK-OV-3 ovarian worked out at 17.6 µM; in the experiment with SK-MEL-2 melanoma it was 3.48 µM; in the experiment with MOLT-4 leukemia, 6.2 µM; in the experiment with KM12 colon it was 3.66 µM; in the experiment with BT-549 breast it was 23.6 µM; in the experiment with SF-268 CNS, 9.47 µM. Besides, the TGI with DU-145 prostate is 10.3 µM; in the experiment on HL-60(TB) leukemia it was 4.22 µM; in the experiment with EKVX NSCLC, 19.8 µM; in the experiment on MDA-MB-231 breast it was 3.26 µM.

As for `N#Cc1c(-c2ccccc2)cc(-c2ccc(Nc3nc(Nc4ccc(Cl)cc4)nc(Nc4ccc(Cl)cc4)n3)cc2)nc1N`, the GI50 is 21.3 µM with SK-OV-3 ovarian; 1.54 µM in the experiment with SK-MEL-2 melanoma; 1.62 µM with MOLT-4 leukemia; 2.91 µM with KM12 colon; 5.2 µM with BT-549 breast; 4.33 µM in the experiment with SF-268 CNS. The GI50 is 4.67 µM with DU-145 prostate, 1.71 µM in the experiment on HL-60(TB) leukemia, 16.6 µM in the experiment with EKVX NSCLC and 1.76 µM in the experiment with MDA-MB-231 breast. The TGI was determined as 55 µM in the experiment with SK-OV-3 ovarian; 3.44 µM with SK-MEL-2 melanoma; 4.53 µM with MOLT-4 leukemia; 11.4 µM with KM12 colon; 24.2 µM in the experiment on BT-549 breast; 19.7 µM in the experiment with SF-268 CNS. The TGI in the experiment with DU-145 prostate is 20.4 µM; in the experiment with HL-60(TB) leukemia, 5.35 µM; in the experiment with EKVX NSCLC it was 48.8 µM; in the experiment on MDA-MB-231 breast it was 4.89 µM.
